# Assay results published in article PMC5641083, “Blockage of FOXP3 transcription factor dimerization and FOXP3/AML1 interaction inhibits T regulatory cell activity: sequence optimization of a peptide inhibitor” (Oncotarget, 2017).
# Legend:
# [1] = test system: Treg cells; assay: Treg pre-treated with peptide, then Treg suppression assay; format: cell-based; conditions: Treg incubated with peptide at 20 μM for 24 hours, washed
# Excerpt: FOXP3 is critical for the development and function of Tregs, but also, FOXP3 can be transiently expressed in effector T cells after TCR stimulation leading to hyporesponsiveness of the effector T cell. […] We speculate that the Foxp3 inhibitory peptides may work at two levels: (i) reducing Treg function and (ii) releasing the brake of FOXP3 transient expression on effector T cells. Thus, we studied the effect of CM-1315 in T cell proliferation and IL-2 and IFN-γ production in effector T cells in response to anti-CD3 stimulation. The original P60, the optimized peptide CM-1315 and a control peptide were tested. […] We also studied the effect of the peptides directly in Tregs. Thus, freshly isolated Treg cells were pre-treated with the peptides for 24 h, and after extensive washing, they were used in conventional Treg suppression assay in coculture with effector T cells and anti-CD3 stimulation.
# Supplementary Figure 4: Effect of Foxp3 inhibitory peptides in effector T cells alone. […] T cell proliferation (A) and IL-2 and IFN-γ (B and C) production in response to anti-CD3 stimulation was measured by 3H-thymidine incorporation and by ELISA respectively.
# Supplementary Figure 5: Effect of FOXP3 inhibitory peptides in Treg cells. […] T cell proliferation was measured by 3H-thymidine incorporation assay. […]
# [2] = target: T1, FOXP3/AML1 interaction (Homo sapiens, UniProt Q9BZS1); assay: AlphaScreen FOXP3/AML1 heterodimerization assay; format: biochemical
# T1 sequence (Q9BZS1 1-431): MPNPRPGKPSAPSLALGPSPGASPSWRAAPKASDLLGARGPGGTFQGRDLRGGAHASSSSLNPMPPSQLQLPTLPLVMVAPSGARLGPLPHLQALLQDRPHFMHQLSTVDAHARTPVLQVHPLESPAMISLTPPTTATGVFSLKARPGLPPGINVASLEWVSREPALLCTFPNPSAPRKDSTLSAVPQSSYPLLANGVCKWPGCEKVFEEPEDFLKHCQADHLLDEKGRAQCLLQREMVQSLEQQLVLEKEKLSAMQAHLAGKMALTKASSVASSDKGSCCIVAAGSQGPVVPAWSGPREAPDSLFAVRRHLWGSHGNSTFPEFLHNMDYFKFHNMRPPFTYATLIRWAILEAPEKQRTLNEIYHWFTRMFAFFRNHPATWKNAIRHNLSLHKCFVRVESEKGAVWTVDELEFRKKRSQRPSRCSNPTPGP
# Excerpt: AML1 is required for IL-2 and IFN-γ gene expression in conventional CD4+ T cells and its interaction with FOXP3 is needed for the immunosuppressive activity of Tregs. On the other hand, it has been described that the leucine zipper region is necessary and sufficient to mediate FOXP3 homo-dimerization, which is required for its function as a transcriptional regulator [13, 15, 20]. Thus, since P60 binds to this FOXP3 intermediate region, we analyzed if it could act as a decoy molecule to inhibit FOXP3 homodimerization or the FOXP3-AML1 heterodimerization. The capacity of FOXP3 to homodimerize was measured using the […] assay platform AlphaScreen™ (Perkin Elmer). Previous protein-cross titration experiment using different concentrations of FOXP3-6His (from 1000 to 0 nM) and GST-FOXP3 (from 300 to 0 nM) allowed us to define the optimal protein concentrations to analyze FOXP3 homodimerization (Figure 2A). […] We also tested if GST tagged FOXP3 was able to interact with AML1 protein tagged with 6 His at the N-terminus. As shown in the cross titration experiments in Figure 2C, a specific FOXP3-AML1 heterodimerization was visualized as an increase in the AlphaScreen signal.
# FOXP3/AML1 heterodimerization, as well as FOXP3/FOXP3 homodimerization were analyzed by Alphascreen technology according to the manufacturer's instructions (Perkin Elmer, Benelux) as previously described.
# [3] = test system: FOXP3-6His (native FOXP3, 1-421); assay: Surface plasmon resonance, peptide binding to FOXP3-coated chip; conditions: FOXP3 coated on chip; mutants compared with original P60
# Procedure: Using truncated versions of FOXP3, we attempted to identify the FOXP3 domain interacting with peptide P60, described previously by or group as a FOXP3 inhibitory peptide. Thus, besides native FOXP3 we prepared the deletion mutants FOXP3 (1-331) (lacking the C-terminus of FOXP3), FOXP3 (177-421) (lacking the N-terminus) and FOXP3 (1-177) (encompassing only the N-terminus of FOXP3) (Figure 1A). They were coated on a chip for SPR experiments.
# Screening of peptide binding to FOXP3 was performed by surface plasmon resonance (SPR) using ProteOn XPR36 (Bio-Rad, Hercules CA, USA) optical biosensor. Recombinant protein FOXP3-6His and the indicated truncated versions of FOXP3 were produced and purified from E-coli and immobilized covalently onto a GLM sensor chip (Bio-Rad) using sulfo-NHS and EDC (Bio-Rad) coupling reagents. After protein immobilization, chip surface was treated with ethanolamine to deactivate the excess of reactive esters. Individual peptide solutions (1–20 μM) were injected by triplicate in running buffer (Phosphate buffered saline, 0.005% (v/v) Tween 20, pH 7.4) at a flow of 30 μl/min. The interspot signal (obtained in the chip surface not immobilized with protein) was used as reference.
substance,measurement,setting,value
H-RDFQSFRKMWPFFAM-OH [P60],Inhibition of suppressive activity of pre-treated Treg (in words),[1],"not able to inhibit significantly Treg cells, although some reversal of suppression was observed"
same,Inhibition of FOXP3-AML1 heterodimerization (in words),[2],able to reduce the signal in a dose dependent manner
same,FOXP3 binding capacity by SPR (in words),[3],bound with high affinity
